Source: patent publication US9096639B2, “17-hydroxy-17-pentafluorethyl-estra-4,9(10)-dien-11-acyloxyalkylene phenyl derivatives, methods for the production thereof and use thereof for treating diseases” (Bayer Intellectual Property GmbH, priority 2009, dated 2015)

Legend:
[1] = Determination of hydrolytic stability (5:1 dioxane/buffer, HPLC); format: physicochemical; conditions: 5:1 dioxane/buffer solution, test ended after 24 or 192 hours, read-out: Hydrolytic stability t1/2
Method: The ester to be analyzed was dissolved in each case in a 5:1 mixture of dioxane and buffer solution (pH 1.2, pH 5.0 or pH 8.0) at 23° C. At different times, the content of ester and hydrolysis products (8S,11R,13S,14S,1 7S)-17-hydroxy-11-[4-((R)-1-hydroxyethyl)phenyl]-13-methyl-17-pentafluoroethyl-1,2,6,7,8,11,12,13,14,15,16,17-dodecahydrocyclopenta[a]phenanthren-3-one and/or (8S,11R,13S,14S,17S)-17-hydroxy-11-[4-((S)-1-hydroxyethyl)phenyl]-1 3-methyl-17-pentafluoroethyl-1,2,6,7,8,11,12,13,14,15,16,17-dodecahydrocyclopenta[a]phenanthren-3-one was determined by HPLC. The test was ended after 24 hours or 192 hours.

[2] = biological target: T1, human progesterone receptor A (Homo sapiens, UniProt P06401); test: Progesterone receptor transactivation test in stably transfected SK-N-MC cells (PR-A, MMTV-LUC reporter); format: cell-based; conditions: 0.1 nmol/l promegestone, 24 hours, read-out: PR-A IC50 (antagonistic potency)
T1 construct: expressed in transfected cells; host or cells: SK-N-MC human neuroblastoma cells, stably transfected with pRChPR-A-neo and pMMTV-LUC
T1 sequence (P06401 1-769 isoform P06401-2): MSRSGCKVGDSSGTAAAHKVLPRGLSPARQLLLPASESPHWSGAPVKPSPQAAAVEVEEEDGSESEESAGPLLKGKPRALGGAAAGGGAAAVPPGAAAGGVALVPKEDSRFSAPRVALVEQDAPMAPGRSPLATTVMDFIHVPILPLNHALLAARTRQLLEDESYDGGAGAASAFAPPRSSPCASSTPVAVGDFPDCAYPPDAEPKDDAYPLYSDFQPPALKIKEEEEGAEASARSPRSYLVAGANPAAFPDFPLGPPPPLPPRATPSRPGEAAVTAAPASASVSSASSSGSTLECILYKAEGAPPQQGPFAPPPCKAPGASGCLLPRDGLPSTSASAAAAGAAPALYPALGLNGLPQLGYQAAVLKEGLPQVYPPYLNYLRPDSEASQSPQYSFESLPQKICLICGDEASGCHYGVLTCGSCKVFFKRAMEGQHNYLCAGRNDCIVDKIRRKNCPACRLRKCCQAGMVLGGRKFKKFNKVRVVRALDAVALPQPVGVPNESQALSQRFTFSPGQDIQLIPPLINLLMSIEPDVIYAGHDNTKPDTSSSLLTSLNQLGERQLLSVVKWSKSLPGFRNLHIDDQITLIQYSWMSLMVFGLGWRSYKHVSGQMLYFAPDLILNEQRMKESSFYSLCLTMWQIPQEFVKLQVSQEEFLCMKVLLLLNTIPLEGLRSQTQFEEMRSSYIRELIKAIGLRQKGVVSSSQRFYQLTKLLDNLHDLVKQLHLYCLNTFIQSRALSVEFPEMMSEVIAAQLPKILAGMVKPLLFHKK
Method: (§1) Progesterone receptor-antagonistic action in stable transfectants of human neuroblastoma cells (SK-N-MC cells) with the human progesterone A or progesterone B receptor and an MN-LUC reporter construct SK-N-MC cells (human neuroblastoma cells) which have been stably transfected with plasmids expressing the human progesterone receptor B (pRChPR-B-neo) or the human progesterone receptor A (pRChPR-A-neo) and a reporter construct (pMMTV-LUC) were incubated for 24 hours either in the absence (negative control) or in the presence of ascending amounts of the particular test compound (0.01 nmol/l, 0.1 nmol/l, 1 […], 100 nmol/l and […]), in order to determine the agonistic efficacy. As a positive control of the reporter gene induction, the cells were treated with the synthetic gestagen promegestone (0.01 nmol/l, 0.1 nmol/l, 1 nmol/l, 10 nmol/l, 100 nmol/l and […]). To determine the antagonistic activity, the cells were treated with 0.1 nmol/l promegestone and additionally with ascending amounts of the particular test compound (0.01 nmol/l, 0.1 nmol/l, 1 nmol/l, 10 nmol/l, 100 nmol/l and […]). The activity of the reporter gene LUC (LUC=luciferase) was determined in the cell lysates and measured as RLU (relative light units). All measurements are reported as % efficacy and as EC50 and IC50 concentrations.

[3] = Determination of stability in rat plasma; format: in vitro ADME; conditions: 37° C., read-out: Stability t1/2 in rat plasma (converted)
Method: (§2) A stock solution of 1.0 mg of the substance to be tested in a 9:1 mixture of acetonitrile and dimethyl sulphoxide was prepared. 20 μl of this stock solution were added at 37° C. to 1 ml of human plasma or rat plasma. To determine the content, 100 μl samples were each taken at different times. The enzyme activity was blocked by adding 300 μl of acetonitrile, the samples were centrifuged at 5000 rpm over 10 minutes and, in the supernatant, the content of ester and hydrolysis products (8S,11R,13S,14S,17S)-17-hydroxy-11-[4-((R)-1-hydroxyethyl)phenyl]-1 3-methyl-17-pentafluoroethyl-1,2,6,7,8,11,12,13,14,15,16,17-dodecahydrocyclopenta[a]phenanthren-3-one and/or (8S,11R,13S,14S,17S)-17-hydroxy-11-[4-((S)-1-hydroxyethyl)phenyl]-13-methyl-17-pentafluoroethyl-1,2,6,7,8,11,12,13,14,15,16,17-dodecahydrocyclopenta[a]phenanthrene-3-one was determined by HPLC. The concentration-time curves were used to calculate the degradation kinetics. The stability of the substance tested was reported as the half-life.

[4] = biological target: T2, human progesterone receptor B (Homo sapiens, UniProt P06401); test: Progesterone receptor transactivation test in stably transfected SK-N-MC cells (PR-B, MMTV-LUC reporter); format: cell-based; conditions: 0.1 nmol/l promegestone, 24 hours, read-out: PR-B IC50 (antagonistic potency)
T2 construct: expressed in transfected cells; host or cells: SK-N-MC human neuroblastoma cells, stably transfected with pRChPR-B-neo and pMMTV-LUC
T2 sequence (P06401 1-933): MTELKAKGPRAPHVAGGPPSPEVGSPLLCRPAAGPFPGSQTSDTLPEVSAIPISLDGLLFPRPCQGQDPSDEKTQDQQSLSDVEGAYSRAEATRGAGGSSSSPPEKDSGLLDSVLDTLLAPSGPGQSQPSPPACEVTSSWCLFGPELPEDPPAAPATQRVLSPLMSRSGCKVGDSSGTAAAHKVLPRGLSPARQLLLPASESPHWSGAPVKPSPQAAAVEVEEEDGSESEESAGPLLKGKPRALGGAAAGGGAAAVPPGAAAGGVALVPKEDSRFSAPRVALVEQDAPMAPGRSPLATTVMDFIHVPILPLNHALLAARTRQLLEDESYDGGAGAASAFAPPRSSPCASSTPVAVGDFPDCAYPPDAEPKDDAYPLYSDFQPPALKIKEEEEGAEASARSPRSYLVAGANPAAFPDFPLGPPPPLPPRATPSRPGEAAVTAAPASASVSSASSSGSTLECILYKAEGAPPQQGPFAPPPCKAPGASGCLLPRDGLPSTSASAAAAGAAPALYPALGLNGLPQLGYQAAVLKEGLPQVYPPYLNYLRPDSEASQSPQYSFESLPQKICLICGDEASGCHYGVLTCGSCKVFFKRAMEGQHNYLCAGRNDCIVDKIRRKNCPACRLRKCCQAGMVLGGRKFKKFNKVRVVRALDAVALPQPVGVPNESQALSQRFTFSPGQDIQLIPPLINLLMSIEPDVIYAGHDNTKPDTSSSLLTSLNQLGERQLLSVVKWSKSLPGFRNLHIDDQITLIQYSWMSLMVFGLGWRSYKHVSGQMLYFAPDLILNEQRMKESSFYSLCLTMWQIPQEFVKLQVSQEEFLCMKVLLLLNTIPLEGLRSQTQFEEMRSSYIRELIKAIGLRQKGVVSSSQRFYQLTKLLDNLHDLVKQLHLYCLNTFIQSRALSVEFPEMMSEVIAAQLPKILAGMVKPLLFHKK
Method: as §1

[5] = Determination of stability in human plasma; format: in vitro ADME
Method: as §2

half-life ([1]; pH = 1.2, 23° C.): > 192 h
half-life ([1]; pH = 8.0, 23° C.): > 192 h
IC50 [2]: 0.1 nM
half-life [3]: 1.2 h
IC50 [4]: 0.1 nM
half-life ([5]; 37° C., read-out: Stability t1/2 in human plasma (converted)): 131 h
half-life ([5]; method of working example 19, summary statement in description, read-out: half-life in human plasma): > 100 h
Structure (SMILES): CC(OC(=O)CCc1nccs1)c1ccc([C@H]2C[C@@]3(C)C(CC[C@@]3(O)C(F)(F)C(F)(F)F)C3CCC4=CC(=O)CCC4=C32)cc1 (mixture of isomers) [Example 15, 3-Thiazol-2-ylpropionic acid (RS)-1-[4-((8S,11R,13S,14S,17S)-17-hydroxy-13-methyl-3-oxo-17-pentafluoroethyl-2,3,6,7,8,11,12,13,14,15,16,17-dodecahydro-1H-cyclopenta[a]phenanthren-11-yl)phenyl]ethyl ester]
